{
  "source": "patent US10568949B2",
  "about": "“Method of eliciting an anti-tumor immune response with controlled delivery of TLR agonists in porous polymerlc devices” (President and Fellows of Harvard College, priority 2008, dated 2020)",
  "system": "host DCs",
  "assay": "In vivo DC emigration from FITC painted scaffolds to inguinal lymph nodes",
  "set-up": "species or system C57BL/6J mice",
  "conditions": "mouse",
  "method": "Blank scaffolds and scaffolds containing GM-CSF with or without 10 μg PEI-ODN control (5′-tcc atg agc ttc ctg agc tt-3′) (SEQ ID NO: 6) or 10 μg PEI-CpG-ODN condensate loaded scaffolds were implanted into subcutaneous pockets on the back of 7-9 week old male C57BL/6J mice. For histological examination scaffolds were excised and fixed in Z-fix solution, embedded in paraffin, and stained with hematoxylin and eosin. To analyze DC recruitment, scaffolds were excised and the ingrown tissue was digested into single cell suspensions using a collagenase solution (Worthingtion, 250 U/ml) that was agitated at 37° C. for 45 minutes. The cell suspensions were then poured through a 40 μm cell strainer to isolate cells from scaffold particles and the cells were pelleted and washed with cold PBS and counted using a Z2 coulter counter (Beckman Coulter). The resultant cell populations were then stained with primary antibodies (BD Pharmingen, San Diego, Calif.) conjugated to fluorescent markers to allow for analysis by flow cytometry. […] Cells were gated according to positive FITC, APC and PE using isotype controls, and the percentage of cells staining positive for each surface antigen was recorded. […]",
  "data": [
    {"substance": "CpG-ODN 1826", "values": [
      {"measurement": "increase in number of DCs recruited to matrices and subsequently dispersed to the lymph nodes", "value": 6, "unit": "fold"}
    ]}
  ]
}
